Experiments:
[1] = Liver microsomal stability, human; type: in vitro ADME; details: pH 7.4, liver microsomes
Description: Microsomal incubations were carried out in 96-well plates in 5 aliquots of 40 μL each (one for each time point). Liver microsomal incubation medium contained PBS (100 mM, pH 7.4), MgCl2 (3.3 mM), NADPH (3 mM), glucose-6-phosphate (5.3 mM), glucose-6-phosphate dehydrogenase (0.67 units/ml) with 0.42 mg of liver microsomal protein per ml. Control incubations were performed replacing the NADPH-cofactor system with PBS. Test compound (2 μM, final solvent concentration 1.6%) was incubated with microsomes at 37° C., shaking at 100 rpm. Incubations were performed in duplicates. Five time points over 40 minutes have been analyzed. The reactions were stopped by adding 12 volumes of 90% acetonitrile-water to incubation aliquots, followed by protein sedimentation by centrifuging at 5500 rpm for 3 minutes. […]. Supernatants were analyzed using the HPLC system coupled with tandem mass spectrometer (API3000 PE Sciex). Acquisition and analysis of the data were performed using Analyst 1.5.2 software (PE Sciex). The elimination constant (kel), half-life (t½) and intrinsic clearance (Clint) were determined in plot of […] versus time, using linear regression analysis:
A 10 mM stock solution of compound in DMSO is diluted three-fold in DMSO. This pre-diluted compound solution is then further diluted to 2 μM in a 50 mM phosphate buffer (PBS, pH 7.4) and pre-warmed at 37° C. This compound dilution is mixed F2 with microsomal/cofactor mix at 37° C. under shaking at 300 rpm. Final reaction conditions are: 100 μL incubation volume, 1 μM of test compound (in duplicate), <0.1% DMSO, 0.5 mg/mL microsomes, 0.6 U/mL Glucose-6-phosphate-dehydrogenase (G6PDH, Roche, 10127671001), 3.3 mM MgCl2 (Sigma, M2670), 3.3 mM glucose-6-phosphate (Sigma, G-7879) and 1.3 mM NADP+ (Sigma, N-0505).
After 60 min of incubation at 300 rpm and 37° C., the reaction was stopped with 3 volumes of STOP solution (acetonitrile/MeOH 2/1 with diclofenac as internal standard). For the time point zero, 3 volumes of STOP solution were added to the compound dilution before the microsome mix was added. Six time points over 60 minutes have been analyzed. The samples of all time points were centrifuged, filtered and the supernatant analyzed by LCMS/MS (systems API4000).
The instrument responses (peak areas/IS peak area) were referenced to the zero time-point samples (considered as 100%) in order to determine the percentage of compound remaining.
Testosterone (1 μM) and Propranolol and Caffeine (1 μM) were used as reference compounds, being unstable and stable compounds respectively. If the microsomal stability values for these controls are not in the range determined by the historical data, the assay is not validated. The solubility of the compound in the final test concentration in 50 mM buffer pH 7.4 is checked by microscope to indicate whether precipitation is observed or not. If a precipitate is observed, no data of microsomal stability is generated.

CYP1A2 = CYP1A2 (Homo sapiens (Human), UniProt P05177); assay: in vitro
Description: The aim of this assay is to determine the inhibitory potential of a test compound. A major concern for drug-drug-interaction is cytochrome P450 inhibition. Reversible CYP inhibition was determined in human liver microsomes using specific probe substrates for human cytochrome P450 isoenzymes CYP1A2, 2C9, 2C19, 2D6 and 3A4.
The potential for CYP450 inhibition was assessed by performing in vitro inhibition studies using fluorogenic CYP450 substrates with the corresponding CYP450 enzymes and NADPH regeneration system (Vivid CYP450 Screening Kits) with some minor changes to the manufacturer's protocols. The fluorescent signal produced from reaction is directly proportional to the cytochrome P450 activity. In the cases when tested compounds interfere with the CYP450 enzyme-substrate reaction, the fluorescent signal decreases. In brief, the tested compounds were first dissolved in DMSO at 100× concentration (1 mM), and diluted in buffer to 2.5× concentration (25 μM). Then the 2.5× compound solutions were mixed with the Master Pre-mix consisting of Human CYP450+Oxidoreductase and NADP+Regeneration System (glucose-6-phosphate and glucose-6-phosphate dehydrogenase). After 10 minutes pre-incubation, the enzymatic reaction was initiated by the addition of a mix of NADPH and the appropriate CYP450 substrates. The plate was incubated for the desired reaction time (25 min for CYP1A2, CYP2C9, CYP2D6, and CYP3A4, 60 min for CYP2C19) after which Stop Reagent was added and fluorescence measured using SpectraMax Paradigm Multi-Mode Microplate Reader. All test points were performed in quadruplicates at concentration 10 μM (1% DMSO).
A 10 mM stock solution of test compound is prepared in methanol. This stock is further serially diluted 1:3 in methanol and then added to mixture containing 50 mM potassium phosphate buffer pH7.4, human liver microsomes (BD Gentest) and probe substrate. After pre-warming 5 min at 37° C., the reaction is started by adding co-factor mix ([…] glucose-6-phosphate, 1.7 mg/mL NADP, 6 U/mL of glucose-6-phosphate dehydrogenase), resulting in a final concentration of test compound at 10 μM (2% MeOH).
Final concentrations of co-factor mix components are as follows: 1.56 mg/mL glucose-6-phosphate, 0.34 mg/mL NADP, 1.2 U/mL of glucose-6-phosphate dehydrogenase.
After incubation at 37° C., the reaction (aliquot of 50 μL) is terminated with 150 μL CH3CN:MeOH (2:1) solution with internal standard (warfarin for 2C9, diclofenac for all other tested isoforms). Samples are centrifuged and the supernatant fractions analyzed by LC-MS/MS.
The instrument responses (ratio of test compound and internal standard peak areas) are referenced to those for solvent controls (assumed as 100%) in order to determine the percentage reduction in probe metabolism. Percent of control activity vs. concentration plots are generated and fitted using GraphPad Prism software to generate IC50.

Sequence of CYP1A2 (P05177 whole entry): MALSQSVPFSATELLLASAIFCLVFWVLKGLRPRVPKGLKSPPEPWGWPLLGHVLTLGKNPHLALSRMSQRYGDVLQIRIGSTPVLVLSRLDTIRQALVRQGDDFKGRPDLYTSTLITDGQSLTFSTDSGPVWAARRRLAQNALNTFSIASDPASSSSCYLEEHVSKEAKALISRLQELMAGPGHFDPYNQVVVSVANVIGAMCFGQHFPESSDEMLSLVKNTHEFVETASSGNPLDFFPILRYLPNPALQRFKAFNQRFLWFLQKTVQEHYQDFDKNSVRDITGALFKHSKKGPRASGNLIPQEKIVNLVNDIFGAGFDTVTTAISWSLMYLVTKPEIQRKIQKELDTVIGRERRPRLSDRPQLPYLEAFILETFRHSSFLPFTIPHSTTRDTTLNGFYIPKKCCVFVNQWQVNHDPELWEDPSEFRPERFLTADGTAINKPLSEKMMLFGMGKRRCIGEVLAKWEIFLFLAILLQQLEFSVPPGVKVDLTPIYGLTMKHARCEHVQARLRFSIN

microsomal CLint [1] [µL/min/mg] | inhibition at 10 µM (CYP1A2) [%] | Structure (SMILES)
10 | 7.17 | CC(C)Oc1ccc(-c2nn[nH]n2)c(N2CCN(Cc3nc4ccccc4c(=O)[nH]3)CC2)c1 [Compound A-32]
99 | 23 | CCCCNC(=O)NS(=O)(=O)c1ccc(C(F)(F)F)cc1N1CCN(Cc2nc3ccccc3n2C)CC1 [Compound A-10, 1-butyl-3-[2-[4-[(1-methylbenzimidazol-2-yl)methyl]piperazin-1-yl]-4-(trifluoromethyl)phenyl]sulfonyl-urea]
6 | 22.5 | CC(C)Cc1ccc(-c2nn[nH]n2)c(N2CCN(Cc3ncccn3)CC2)c1 [Compound A-88]
8 | 27.4 | CC(C)Oc1ccc(-c2nn[nH]n2)c(N2CCN(Cc3nc4ccccc4n3C)CC2)c1 [Compound A-24, 2-[[4-[5-isopropoxy-2-(2H-tetrazol-5-yl)phenyl]piperazin-1-yl]methyl]-1-methyl-benzimidazole]
24 | – | CC(C)Cc1ccc(-c2nn[nH]n2)c(N2CCN(Cc3nc4ccccc4n3C)CC2)c1 [Compound A-20, 2-[[4-[5-isobutyl-2-(2H-tetrazol-5-yl)-phenyl]piperazin-1-yl]methyl]-1-meth-yl-benzimidazole]
< 6.6 | 16 | CC(C)Cc1cc(F)c(-c2nn[nH]n2)c(N2CCN(Cc3ccccn3)[C@@H](C)C2)c1 [Compound A-217, (2S)-4-[3-fluoro-5-isobutyl-2-(2H-tetrazol-5-yl)phenyl]-2-methyl-1-(2-pyridylmethyl)piperazine]
15 | 9.89 | Cc1cc(CN2CCN(c3cc(CC(C)C)ccc3-c3nn[nH]n3)CC2)no1 [Compound A-82, 3-[[4-[5-isobutyl-2-(2H-tetrazol-5-yl)phenyl]piperazin-1-yl]methyl]-5-methyl-isoxazole]
6 | 2.61 | CC(C)Cc1ccc(-c2nn[nH]n2)c(N2CCN(Cc3nccn3C)CC2)c1 [Compound A-83, 1-[5-isobutyl-2-(2H-tetrazol-5-yl)-phenyl]-4-[(1-meth-ylimidazol-2-yl)-methyl]piperazine]
18.2 | 16 | Cc1cnc(CN2CCN(c3cc(CC(C)C)cc(F)c3-c3nn[nH]n3)C[C@@H]2C)s1 [Compound A-223, 2-[[(2S)-4-[3-fluoro-5-isobutyl-2-(2H-tetrazol-5-yl)phenyl]-2-methyl-piperazin-1-yl]methyl]-5-methyl-thiazole]
4 | 18.5 | CC(C)Cc1cc(F)c(-c2nn[nH]n2)c(N2CCN(Cc3cccnn3)C(C)C2)c1 (stereo not shown) [Compound A-173, 3-[[4-[3-fluoro-5-isobutyl-2-(2H-tetrazol-5-yl)phenyl]-2-methyl-piperazin-1-yl]methyl]pyridazine]
8 | 6.09 | CC(C)Cc1ccc(-c2nn[nH]n2)c(N2CCN(Cc3nc4ccccc4c(=O)[nH]3)CC2)c1 [Compound A-31, 2-[[4-[5-isobutyl-2-(2H-tetrazol-5-yl)phenyl]piperazin-1-yl]methyl]-3H-quinazolin-4-one]
37 | – | CCCCOC(=O)NS(=O)(=O)c1ccc(C(F)(F)F)cc1N1CCN(Cc2nc3ccccc3n2C)CC1 [Compound A-09, butyl N-[2-[4-[(1-methylbenzimidazol-2-yl)methyl]piperazin-1-yl]-4-(trifluoromethyl)phenyl]sulfonylcarbamate]
12 | – | CCC1CN(Cc2cccnn2)CCN1c1cc(CC(C)C)cc(F)c1-c1nn[nH]n1 (stereo not shown) [Compound A-181, 3-[[3-ethyl-4-[3-fluoro-5-isobutyl-2-(2H-tetrazol-5-yl)phenyl]piperazin-1-yl]methyl]pyridazine]
40 | 5.6 | CC(C)Cc1ccc(-c2nn[nH]n2)c(N2CCN(Cc3ccnn3C)CC2)c1 [Compound A-84, 1-[5-isobutyl-2-(2H-tetrazol-5-yl)phenyl]-4-[(1-methylpyrazol-5-yl)methyl]piperazine]
7 | – | CC(C)Cc1cc(F)c(-c2nn[nH]n2)c(N2CC(C)N(Cc3cccnn3)CC2C)c1 (stereo not shown) [Compound A-183, 3-[[4-[3-fluoro-5-isobutyl-2-(2H-tetrazol-5-yl)phen-yl]-2,5-dimethyl-piperazin-1-yl]-methyl]pyridazine]
7 | 10.3 | CC(C)Cc1ccc(-c2nn[nH]n2)c(N2CCN(Cc3cccnn3)CC2)c1 [Compound A-90, 3-[[4-[5-isobutyl-2-(2H-tetrazol-5-yl)phenyl]piperazin-1-yl]methyl]pyridazine]
< 6.6 | 22.7 | CC(C)Cc1cc(F)c(-c2nn[nH]n2)c(N2CCN(Cc3cccnn3)[C@@H](C)C2)c1 [Compound A-174, 3-[[(2S)-4-[3-fluoro-5-isobutyl-2-(2H-tetrazol-5-yl)phenyl]-2-methyl-piperazin-1-yl]methyl]pyridazine]
12 | – | CC(C)Oc1ccc(-c2nn[nH]n2)c(N2CCN(Cc3nc4ccccc4s3)CC2)c1 [Compound A-51, 2-[[4-[5-isoprop-oxy-2-(2H-tetrazol-5-yl)phenyl]piper-azin-1-yl]methyl]-1,3-benzothiazole]
259 | – | CCCCNC(=O)NS(=O)(=O)c1ccc(C)cc1N1CCN(Cc2nc3ccccc3n2C)CC1 [Compound A-12, 1-butyl-3-[4-methyl-2-[4-[(1-methylbenzimidazol-2-yl)methyl]piperazin-1-yl]phenyl]sulfonyl-urea]

Structure (SMILES) | microsomal CLint [1] [µL/min/mg] | inhibition at 10 µM (CYP1A2) [%]
CCC1CN(c2cc(CC(C)C)cc(F)c2-c2nn[nH]n2)CCN1Cc1cccnn1 (stereo not shown) [Compound A-178, 3-[[2-ethyl-4-[3-fluoro-5-isobutyl-2-(2H-tetrazol-5-yl)phenyl]piperazin-1-yl]methyl]pyridazine] | 20 | 23.5

Source: patent publication US20240368133A1, “Compounds for the Treatment of Pain, in Particular, Neuropathic Pain, and/or Other Diseases or Disorders that are Associated with AT2R and/or AT2R Mediated Signaling” (Confo Therapeutics N.V., priority 2021, published 2024)
